In ChEMBL document CHEMBL1221256, “A mutant selective anti-estrogen is a pure antagonist on EREs and AP-1 response elements” (Bioorg Med Chem Lett, 2010):
Active and inactive are the calls of the source. The calls are words filed in the database; no cut-off is given here.

Experiments:
[1] = target: T1, Estrogen receptor (Homo sapiens) (UniProt P03372); test: Agonist activity at human wild type ERalpha expressed in human HeLa cells co-expressing AP-1 assessed as transactivation activity by luciferase reporter gene assay; type: functional, cell-based
T1 sequence (whole entry): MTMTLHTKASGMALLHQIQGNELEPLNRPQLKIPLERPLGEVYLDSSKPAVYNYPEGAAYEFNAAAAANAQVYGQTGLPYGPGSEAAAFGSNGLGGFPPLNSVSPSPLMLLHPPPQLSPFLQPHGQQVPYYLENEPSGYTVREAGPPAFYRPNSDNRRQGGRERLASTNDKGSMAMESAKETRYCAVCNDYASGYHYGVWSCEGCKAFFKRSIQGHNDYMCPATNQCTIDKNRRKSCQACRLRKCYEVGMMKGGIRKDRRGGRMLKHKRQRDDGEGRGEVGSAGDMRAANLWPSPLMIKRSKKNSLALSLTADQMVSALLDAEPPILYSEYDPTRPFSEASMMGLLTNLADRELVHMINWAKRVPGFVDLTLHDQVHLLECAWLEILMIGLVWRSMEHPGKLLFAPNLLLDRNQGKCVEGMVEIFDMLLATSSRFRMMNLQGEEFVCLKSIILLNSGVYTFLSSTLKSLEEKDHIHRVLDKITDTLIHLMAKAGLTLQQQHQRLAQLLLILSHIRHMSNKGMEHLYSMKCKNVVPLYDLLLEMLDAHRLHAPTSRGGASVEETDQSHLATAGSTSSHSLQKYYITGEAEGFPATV

[2] = target: Estrogen receptor beta (Homo sapiens, UniProt Q92731, E305A)
[3] = target: T2, Estrogen receptor (Homo sapiens, UniProt P03372)
T2 sequence (P03372 whole entry): T1 sequence (whole entry)

[4] = target: T3, Estrogen receptor beta (Homo sapiens, UniProt Q92731)
Description: Antagonist activity at human wild type ERbeta expressed in human HeLa cells co-expressing AP-1 assessed as inhibition of transactivation activity by luciferase reporter gene assay

[5] = target: Estrogen receptor (Homo sapiens, UniProt P03372, E353A)
[6] = target: T3, Estrogen receptor beta; remark: listed apart in the source
[7] = target: T3, Estrogen receptor beta; remark: listed apart in the source
[8] = system: Estrogen receptor beta (Homo sapiens), Q92731 [E305A]; test: Antagonist activity at human ERbeta E305A mutant expressed in human HeLa cells co-expressing AP-1 assessed as inhibition of transactivation activity at up to 10 uM by luciferase reporter gene assay; type: functional, cell-based
Sequence of Estrogen receptor beta (Homo sapiens), Q92731 [E305A] (Q92731 whole entry E305A): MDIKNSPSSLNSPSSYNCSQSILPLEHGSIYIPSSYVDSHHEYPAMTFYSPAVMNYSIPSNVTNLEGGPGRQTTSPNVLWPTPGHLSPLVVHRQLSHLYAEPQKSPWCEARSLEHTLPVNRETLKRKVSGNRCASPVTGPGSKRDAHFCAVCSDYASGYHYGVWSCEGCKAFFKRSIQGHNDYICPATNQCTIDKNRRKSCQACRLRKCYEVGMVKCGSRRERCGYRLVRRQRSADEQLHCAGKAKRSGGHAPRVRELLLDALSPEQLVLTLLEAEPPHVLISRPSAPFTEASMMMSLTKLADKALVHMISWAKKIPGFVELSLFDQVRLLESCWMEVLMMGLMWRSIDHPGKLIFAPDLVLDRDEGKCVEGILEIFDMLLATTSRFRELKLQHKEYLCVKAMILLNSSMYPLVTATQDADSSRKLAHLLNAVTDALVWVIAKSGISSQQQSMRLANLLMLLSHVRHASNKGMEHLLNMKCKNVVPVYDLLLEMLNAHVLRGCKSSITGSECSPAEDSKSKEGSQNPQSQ

T3 sequence (Q92731 whole entry): as the sequence (Q92731 whole entry E305A) above, with A305E counted along it
Sequence of Estrogen receptor beta (Homo sapiens, UniProt Q92731, E305A) (Q92731 whole entry E305A): as the sequence (Q92731 whole entry E305A) above
Sequence of Estrogen receptor (Homo sapiens, UniProt P03372, E353A) (P03372 whole entry E353A): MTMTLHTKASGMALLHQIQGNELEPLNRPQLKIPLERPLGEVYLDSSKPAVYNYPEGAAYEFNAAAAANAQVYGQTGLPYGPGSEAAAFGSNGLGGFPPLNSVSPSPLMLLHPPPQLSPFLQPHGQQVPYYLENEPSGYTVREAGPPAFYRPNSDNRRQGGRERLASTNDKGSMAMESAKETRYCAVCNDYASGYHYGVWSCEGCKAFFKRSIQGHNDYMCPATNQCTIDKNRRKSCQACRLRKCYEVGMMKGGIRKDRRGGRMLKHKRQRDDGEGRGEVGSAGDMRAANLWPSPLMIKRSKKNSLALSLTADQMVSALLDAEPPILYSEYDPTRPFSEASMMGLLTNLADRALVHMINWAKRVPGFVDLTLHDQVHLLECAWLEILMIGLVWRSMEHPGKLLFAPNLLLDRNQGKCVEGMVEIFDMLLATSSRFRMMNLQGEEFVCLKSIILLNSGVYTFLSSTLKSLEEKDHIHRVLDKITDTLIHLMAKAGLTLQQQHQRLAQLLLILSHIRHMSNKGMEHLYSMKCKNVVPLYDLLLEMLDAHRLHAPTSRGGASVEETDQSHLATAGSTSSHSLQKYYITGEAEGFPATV

| SMILES | Activity [1] | IC50 [2] [nM] | IC50 [3] [nM] | EC50 [4] [nM] | IC50 [5] [nM] | IC50 [6] [nM] | IC50 [7] [nM] | Activity [8] |
| --- | --- | --- | --- | --- | --- | --- | --- | --- |
| CCCCN(C)C(=O)CCCCCCCCCC[C@@H]1Cc2cc(O)ccc2[C@H]2CC[C@]3(C)[C@@H](O)CC[C@H]3[C@H]12 | Active | – | – | – | – | – | – | – |
| O=C(O)/C=C/c1ccc2c(C(=O)c3ccc(OCCN4CCCCC4)cc3)c(-c3ccc(O)cc3)sc2c1 | – | > 10000 | 82 | 150 | 212 | 104 | > 10000 | inactive |
